What all share (assay type): cell-based
The test system of test [1] is Hep3B cells (human hepatoma cell). In words: MTT cytotoxicity assay, Hep3B. Conditions: 48 h exposure. Here is the method:
(§1) Having obtained a series of structurally diverse OA-dithiocarbamates, we next performed a systematic biological evaluation to examine whether introducing an extra dithiocarbamate group could improve antitumor activities. These compounds were evaluated by MTT assay against human pancreatic cancer (Panc1), human lung cancer (A549), human hepatoma cell (Hep3B), human hepatoma cell (Huh-7), human colon cancer (HT-29), and human cervical cancer (Hela) cells, with the widely used anticancer drugs fluorouracil, docetaxel, and cisplatin as positive controls (Table 2). […] Moreover, the cytotoxicities of compounds 3a-3t were also evaluated in human normal hepatocytes (LO2) to determine whether these compounds preferred killing tumor cells over normal cells.
(§2) The optical density at 490 nm of each well was measured using a microplate reader (Molecular devices corporation, Sunnyvale, CA. USA) to calculate the percent of cell viability. The inhibition rates were calculated using GraphPad Prism 7.0 software. The seven tested cell lines were obtained from the laboratory of Molecular Pharmacology, Department of Pharmacology, School of Pharmacy, Southwest Medical University.
(§3) The in vitro cytotoxic activities of the compounds were evaluated by MTT assay against Panc1, A549, Hep3B, Huh-7, HT-29, Hela, LO2. Cell lines were obtained from the Laboratory of Molecular Pharmacology, Southwest Medical University. Briefly, different tumor cells grew in DMEM medium except for A549, which used 1640 medium. Cells ((3–5) × 10^3 cells/well) were harvested at the log phase of growth and seeded in 96-well plates. After 24 h incubation at 37 °C in 5% CO2 to allow cell attachment, cultures were exposed to various concentrations of the isolated compounds for 48 h. Finally, the MTT solution was added. Plates were further incubated for 4 h at 37 °C after adding 150 µL/well of DMSO and shaking for 10 min on the shaker platform. The plates were read in a 96-well plate reader at 490 nm wavelength. The results were expressed as IC50 values, and were defined as the concentration at which 50% survival of cells was obtained. Fluorouracil, docetaxel, and cisplatin were co-assayed as positive controls.
In general terms: Tetrazolium dyes change colour on reduction, which living cells bring about.

Test [2] concerns LO2 cells (human normal hepatocytes). In words: MTT cytotoxicity assay, LO2 normal cells. Here is the method:
as §1, §2, §3

Test [3] deals with Hela cells (human cervical cancer). In words: MTT cytotoxicity assay, Hela. Conditions: 48 h exposure. The procedure:
as §1, §2, §3

Test [4] relates to Huh-7 cells (human hepatoma cell). In words: MTT cytotoxicity assay, Huh-7. Conditions: Huh-7, MTT, 48 h exposure. Here is the method:
as §1, §2, §3

Test [5] concerns Panc1 cells (human pancreatic cancer). Nature of the test: MTT cytotoxicity assay, Panc1. Here is the method: as §1, §2, §3
Test [6] relates to A549 cells (human lung cancer). In words: MTT cytotoxicity assay, A549. Conditions: 48 h exposure. Here is the method:
as §1, §2, §3

Test [7] deals with HT-29 cells (human colon cancer). In words: MTT cytotoxicity assay, HT-29. Conditions: HT-29, MTT, 48 h exposure. Here is the method: as §1, §2, §3
The mark [8] stands for this setting: Homo sapiens, PANC-1, 48 h exposure.

Among the data in article PMC9920998, “Synthesis of Oleanolic Acid-Dithiocarbamate Conjugates and Evaluation of Their Broad-Spectrum Antitumor Activities” (Molecules, 2023) are IC50 values, retold here.

On to `CC1(C)CC[C@]2(C(=O)OCCSC(=S)N3CCCC3)CC[C@]3(C)C(=CC[C@@H]4[C@@]5(C)CC[C@H](O)C(C)(C)[C@@H]5CC[C@]43C)[C@@H]2C1` [3a, [2-((pyrrolidine-1-carbonothioyl)thio)ethyl] 3-hydroxy-12-en-28-oic acid], for which the IC50 in test [1] (Homo sapiens) was more than 200 µM; in test [2] (L02, 48 h exposure) it was 113 µM; in test [3] (Homo sapiens), 89.4 µM; in test [4] (Homo sapiens) it was 145 µM; in test [5] (setting [8]), more than 200 µM; in test [6] (Homo sapiens), 92.1 µM.
Consider `O=c1[nH]cc(F)c(=O)[nH]1` [5-fluorouracil], for which the IC50 in test [1] (Homo sapiens) was 152 µM; in test [2] (L02, 48 h exposure), 109 µM; in test [3] (Homo sapiens) it was 130 µM; in test [4] (Homo sapiens), 140 µM; in test [7] (Homo sapiens), 93.3 µM; in test [5] (setting [8]) it was 160 µM. In test [6] (Homo sapiens), this molecule returned an IC50 of 125 µM.
As to `N.N.[Cl][Pt][Cl]` [Cisplatin], the IC50 was more than 200 µM in test [1]; more than 200 µM in test [2] (48 h exposure); 142 µM in test [3]; more than 200 µM in test [4]; more than 200 µM in test [7]; more than 200 µM in test [5] (48 h exposure). The molecule further registered an IC50 in test [6] of more than 200 µM.
With `CC(=O)O[C@@]12CO[C@@H]1C[C@H](O)[C@@]1(C)C(=O)[C@H](O)C3=C(C)[C@@H](OC(=O)[C@H](O)[C@@H](NC(=O)OC(C)(C)C)c4ccccc4)C[C@@](O)([C@@H](OC(=O)c4ccccc4)[C@H]21)C3(C)C` [Docetaxel], the IC50 is 172 µM in test [1] (Homo sapiens); 140 µM in test [2] (L02, 48 h exposure); 135 µM in test [3] (Homo sapiens); 104 µM in test [4] (Homo sapiens); more than 200 µM in test [7] (Homo sapiens); more than 200 µM in test [5] (setting [8]). The same molecule gave an IC50 in test [6] (Homo sapiens) of more than 200 µM.
Regarding `CC1(C)CC[C@]2(C(=O)O)CC[C@]3(C)C(=CC[C@@H]4[C@@]5(C)CC[C@H](O)C(C)(C)[C@@H]5CC[C@]43C)[C@@H]2C1` [OA, oleanolic acid], the IC50 is more than 200 µM in test [1] (Homo sapiens); 140 µM in test [2] (L02, 48 h exposure); more than 200 µM in test [3] (Homo sapiens); more than 200 µM in test [4] (Homo sapiens); more than 200 µM in test [7] (Homo sapiens); more than 200 µM in test [5] (setting [8]). The molecule further had an IC50 in test [6] (Homo sapiens) of more than 200 µM.

Usually IC50 stands for the point on the concentration scale where inhibition reaches its midpoint.
